Test systems include 786-0 renal; CCRF-CEM leukemia; DU-145 prostate; HS 578T breast; MCF7 breast; MDA-MB-231 breast; PC-3 prostate; SK-MEL-5 melanoma; SK-OV-3 ovarian; SNB-19 CNS.
Common to all, as to test: NCI tumour cell line growth inhibition, 48 h

Each structure is given as a SMILES string. Several values for one entry are separate records, joined by “and”; a condition that tells them apart may be missing. Identical values can stand only once.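 Compound exposure: 48 hours, 5 concentrations, 96-well plates. Abbreviation: GI50, concentration required for 50% inhibition of growth. TGI marks complete inhibition of growth.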

`CC(C)c1[nH]nc2c1N=C(c1ccccc1Cl)c1cc([N+](=O)[O-])ccc1N2`: the GI50 with 786-0 renal is 5.74 µM; with CCRF-CEM leukemia, 5.34 µM; with DU-145 prostate it was 7.87 µM; with HS 578T breast, 3.16 µM; in the test with MCF7 breast, 4.53 µM; in the test with MDA-MB-231 breast, 7.92 µM. Moreover, the GI50 with PC-3 prostate was 6.7 µM; with SK-MEL-5 melanoma, 5.33 µM; in the test on SK-OV-3 ovarian, 10.1 µM; in the test with SNB-19 CNS, 11.8 µM. Further, the TGI in the test on 786-0 renal was over 24 µM; in the test on CCRF-CEM leukemia, over 17.8 µM; with DU-145 prostate it was over 23.6 µM; in the test on HS 578T breast it was over 20.7 µM; in the test on MCF7 breast, 24.3 µM; with MDA-MB-231 breast it was over 25 µM. Further, the TGI was over 25 µM with PC-3 prostate, 16.2 µM with SK-MEL-5 melanoma, over 25 µM in the test on SK-OV-3 ovarian and over 25 µM in the test on SNB-19 CNS.
Turning to `COc1cc2c(Nc3cc(Cl)c(OC)c(Cl)c3)c(C#N)cnc2cc1OCCCN1CCN(C)CC1`, the GI50 was 1.73 µM with 786-0 renal; 2.04 µM with CCRF-CEM leukemia; 1.28 µM with DU-145 prostate; 2.82 µM in the test with HS 578T breast; 2.58 µM in the test with MCF7 breast; 2.6 µM with MDA-MB-231 breast. The GI50 with PC-3 prostate was 7.06 µM; with SK-MEL-5 melanoma, 1.37 µM; in the test on SK-OV-3 ovarian, 0.378 µM; with SNB-19 CNS, 4.57 µM. For the same molecule, the TGI with 786-0 renal was found to be 4.54 µM; in the test with CCRF-CEM leukemia it was 10.8 µM; with DU-145 prostate, 13 µM; with HS 578T breast it was 11.5 µM; in the test with MCF7 breast it was 12.6 µM; in the test with MDA-MB-231 breast, 5.2 µM. The TGI in the test with PC-3 prostate came out at 20.6 µM; in the test on SK-MEL-5 melanoma it was 2.71 µM; with SK-OV-3 ovarian, 16.6 µM; with SNB-19 CNS, 14.9 µM.
Regarding `COc1ccc(-c2ccc3c(N4CCOC[C@@H]4C)nc(N4CCOC[C@@H]4C)nc3n2)cc1CO`, the GI50 with 786-0 renal is 0.00494 µM and 0.0416 µM; in the test with CCRF-CEM leukemia it was 0.0102 µM and 0.059 µM; with DU-145 prostate, 0.00584 µM and 0.0416 µM; in the test on HS 578T breast it was 0.0018 µM and 0.0131 µM; in the test on MCF7 breast, 0.00432 µM and < 0.0133 µM; in the test with MDA-MB-231 breast, 0.00595 µM and 0.0364 µM. In addition, the GI50 with PC-3 prostate was 0.00478 µM and < 0.0109 µM; in the test on SK-MEL-5 melanoma, 0.00471 µM and 0.0264 µM; with SK-OV-3 ovarian it was 0.00324 µM and 0.0138 µM; in the test on SNB-19 CNS it was 0.00693 µM and 0.0491 µM. The TGI in the test on 786-0 renal was over 45.1 µM; in the test with CCRF-CEM leukemia, over 100 µM; in the test with DU-145 prostate, over 100 µM; in the test on HS 578T breast, 0.0145 µM and 0.0679 µM; with MCF7 breast it was > 3.27 µM and 1.34 µM; with MDA-MB-231 breast it was 13.8 µM. For the same molecule, the TGI is over 100 µM in the test on PC-3 prostate; 0.0479 µM and 0.116 µM with SK-OV-3 ovarian; over 100 µM in the test with SNB-19 CNS.
As to `COc1ccc(C(CC(=O)c2ccc3c(c2)OCO3)c2c(O)c3ccccc3oc2=O)cc1OC` (centres undefined), the TGI in the test on 786-0 renal, in the test with CCRF-CEM leukemia, with DU-145 prostate, in the test with HS 578T breast, in the test with MCF7 breast and in the test with MDA-MB-231 breast was over 100 µM in each case. For the same molecule, the TGI in the test on PC-3 prostate, in the test with SK-MEL-5 melanoma, in the test on SK-OV-3 ovarian and in the test with SNB-19 CNS was over 100 µM each time.
Regarding `CCNC(=O)/C(=C/c1ccc(OC)cc1)c1cc(OC)c(OC)c(OC)c1`, the TGI was over 100 µM in the test on 786-0 renal; over 100 µM in the test on CCRF-CEM leukemia; 80.2 µM in the test with DU-145 prostate; over 42.2 µM with HS 578T breast; over 100 µM in the test on MCF7 breast; over 86.1 µM in the test on MDA-MB-231 breast. The TGI with PC-3 prostate is over 100 µM; with SK-MEL-5 melanoma, over 53.9 µM; with SK-OV-3 ovarian it was over 100 µM; in the test on SNB-19 CNS, over 100 µM.
Take `CCN(CC)CCCCCCNc1cccc2cc(Br)cnc12`: the GI50 was 3.39 µM in the test on 786-0 renal; 3.13 µM in the test with CCRF-CEM leukemia; 12.7 µM in the test with DU-145 prostate; 6.03 µM in the test with HS 578T breast; 3.02 µM in the test on MCF7 breast; 1.59 µM in the test on MDA-MB-231 breast. In addition, the GI50 with PC-3 prostate is 3.6 µM; with SK-MEL-5 melanoma, 1.83 µM; in the test on SK-OV-3 ovarian it was 13.2 µM; in the test with SNB-19 CNS, 5.77 µM. Moreover, the TGI with 786-0 renal came to 11.1 µM; in the test on CCRF-CEM leukemia, 11.2 µM; with DU-145 prostate it was 26.4 µM; in the test with HS 578T breast it was 28.5 µM; in the test on MCF7 breast, 11.2 µM; in the test on MDA-MB-231 breast, 4.64 µM. Further, the TGI came out at 17 µM with PC-3 prostate, 3.27 µM in the test on SK-MEL-5 melanoma, 26.8 µM in the test on SK-OV-3 ovarian and 22.6 µM in the test on SNB-19 CNS.
Take `O=C(NCc1ccc(Cn2c(=O)sn(-c3ccccc3)c2=O)cc1)OCc1ccc2cccc(O)c2n1`: the GI50 in the test on 786-0 renal was 0.484 µM; with CCRF-CEM leukemia, 0.359 µM; with DU-145 prostate, 1.08 µM; in the test on HS 578T breast, 1.71 µM; in the test with MCF7 breast it was 0.331 µM; in the test with MDA-MB-231 breast, 1.19 µM. Moreover, the GI50 with PC-3 prostate was 0.826 µM; in the test with SK-MEL-5 melanoma, 1.6 µM; in the test with SK-OV-3 ovarian, 5.96 µM; with SNB-19 CNS it was 1.49 µM. The TGI in the test with 786-0 renal was 1.08 µM; in the test with CCRF-CEM leukemia, over 100 µM; in the test on DU-145 prostate, 2.29 µM; with HS 578T breast it was 4.9 µM; in the test on MCF7 breast, 2.12 µM; with MDA-MB-231 breast, 2.55 µM. The TGI was 2.42 µM with PC-3 prostate, 2.97 µM with SK-MEL-5 melanoma, 18.7 µM in the test with SK-OV-3 ovarian and 2.84 µM with SNB-19 CNS.
For the molecule `COc1ccc(-c2nc(-c3cc(OC)cc(OC)c3)[nH]c2-c2ccc(OC)cc2)cc1`, the GI50 in the test on 786-0 renal is over 100 µM; with CCRF-CEM leukemia, 3.93 µM; in the test with DU-145 prostate, 65.5 µM; in the test on HS 578T breast it was 8.33 µM; in the test with MCF7 breast, 3.77 µM; with MDA-MB-231 breast, 6.82 µM. In addition, the GI50 in the test with PC-3 prostate was 4 µM; in the test on SK-MEL-5 melanoma, 1.85 µM; with SK-OV-3 ovarian, over 100 µM; with SNB-19 CNS, over 100 µM. The TGI in the test on 786-0 renal, in the test on CCRF-CEM leukemia, with DU-145 prostate, with HS 578T breast, in the test on MCF7 breast and in the test on MDA-MB-231 breast was over 100 µM throughout. In addition, the TGI is over 100 µM in the test with PC-3 prostate, 3.7 µM in the test on SK-MEL-5 melanoma, over 100 µM in the test on SK-OV-3 ovarian and over 100 µM in the test with SNB-19 CNS.

(Values after PubChem BioAssay (NCI).)
